Data on eleven molecules can be found in ChEMBL document CHEMBL3046466 (Med Chem Res, 2012).

Molecules are shown by their SMILES.

This data set deals with Voltage-dependent L-type calcium channel subunit alpha-1C (Cavia porcellus, UniProt O35505). As to the kind of experiment: Inhibition of Calcium channel in Cavia porcellus albino (guinea pig) ileocecal SMC assessed as inhibition of 80 mM KCl-induced contraction. Conditions: for IC30: guinea pig.
Voltage-dependent L-type calcium channel subunit alpha-1C, sequence (O35505 whole entry): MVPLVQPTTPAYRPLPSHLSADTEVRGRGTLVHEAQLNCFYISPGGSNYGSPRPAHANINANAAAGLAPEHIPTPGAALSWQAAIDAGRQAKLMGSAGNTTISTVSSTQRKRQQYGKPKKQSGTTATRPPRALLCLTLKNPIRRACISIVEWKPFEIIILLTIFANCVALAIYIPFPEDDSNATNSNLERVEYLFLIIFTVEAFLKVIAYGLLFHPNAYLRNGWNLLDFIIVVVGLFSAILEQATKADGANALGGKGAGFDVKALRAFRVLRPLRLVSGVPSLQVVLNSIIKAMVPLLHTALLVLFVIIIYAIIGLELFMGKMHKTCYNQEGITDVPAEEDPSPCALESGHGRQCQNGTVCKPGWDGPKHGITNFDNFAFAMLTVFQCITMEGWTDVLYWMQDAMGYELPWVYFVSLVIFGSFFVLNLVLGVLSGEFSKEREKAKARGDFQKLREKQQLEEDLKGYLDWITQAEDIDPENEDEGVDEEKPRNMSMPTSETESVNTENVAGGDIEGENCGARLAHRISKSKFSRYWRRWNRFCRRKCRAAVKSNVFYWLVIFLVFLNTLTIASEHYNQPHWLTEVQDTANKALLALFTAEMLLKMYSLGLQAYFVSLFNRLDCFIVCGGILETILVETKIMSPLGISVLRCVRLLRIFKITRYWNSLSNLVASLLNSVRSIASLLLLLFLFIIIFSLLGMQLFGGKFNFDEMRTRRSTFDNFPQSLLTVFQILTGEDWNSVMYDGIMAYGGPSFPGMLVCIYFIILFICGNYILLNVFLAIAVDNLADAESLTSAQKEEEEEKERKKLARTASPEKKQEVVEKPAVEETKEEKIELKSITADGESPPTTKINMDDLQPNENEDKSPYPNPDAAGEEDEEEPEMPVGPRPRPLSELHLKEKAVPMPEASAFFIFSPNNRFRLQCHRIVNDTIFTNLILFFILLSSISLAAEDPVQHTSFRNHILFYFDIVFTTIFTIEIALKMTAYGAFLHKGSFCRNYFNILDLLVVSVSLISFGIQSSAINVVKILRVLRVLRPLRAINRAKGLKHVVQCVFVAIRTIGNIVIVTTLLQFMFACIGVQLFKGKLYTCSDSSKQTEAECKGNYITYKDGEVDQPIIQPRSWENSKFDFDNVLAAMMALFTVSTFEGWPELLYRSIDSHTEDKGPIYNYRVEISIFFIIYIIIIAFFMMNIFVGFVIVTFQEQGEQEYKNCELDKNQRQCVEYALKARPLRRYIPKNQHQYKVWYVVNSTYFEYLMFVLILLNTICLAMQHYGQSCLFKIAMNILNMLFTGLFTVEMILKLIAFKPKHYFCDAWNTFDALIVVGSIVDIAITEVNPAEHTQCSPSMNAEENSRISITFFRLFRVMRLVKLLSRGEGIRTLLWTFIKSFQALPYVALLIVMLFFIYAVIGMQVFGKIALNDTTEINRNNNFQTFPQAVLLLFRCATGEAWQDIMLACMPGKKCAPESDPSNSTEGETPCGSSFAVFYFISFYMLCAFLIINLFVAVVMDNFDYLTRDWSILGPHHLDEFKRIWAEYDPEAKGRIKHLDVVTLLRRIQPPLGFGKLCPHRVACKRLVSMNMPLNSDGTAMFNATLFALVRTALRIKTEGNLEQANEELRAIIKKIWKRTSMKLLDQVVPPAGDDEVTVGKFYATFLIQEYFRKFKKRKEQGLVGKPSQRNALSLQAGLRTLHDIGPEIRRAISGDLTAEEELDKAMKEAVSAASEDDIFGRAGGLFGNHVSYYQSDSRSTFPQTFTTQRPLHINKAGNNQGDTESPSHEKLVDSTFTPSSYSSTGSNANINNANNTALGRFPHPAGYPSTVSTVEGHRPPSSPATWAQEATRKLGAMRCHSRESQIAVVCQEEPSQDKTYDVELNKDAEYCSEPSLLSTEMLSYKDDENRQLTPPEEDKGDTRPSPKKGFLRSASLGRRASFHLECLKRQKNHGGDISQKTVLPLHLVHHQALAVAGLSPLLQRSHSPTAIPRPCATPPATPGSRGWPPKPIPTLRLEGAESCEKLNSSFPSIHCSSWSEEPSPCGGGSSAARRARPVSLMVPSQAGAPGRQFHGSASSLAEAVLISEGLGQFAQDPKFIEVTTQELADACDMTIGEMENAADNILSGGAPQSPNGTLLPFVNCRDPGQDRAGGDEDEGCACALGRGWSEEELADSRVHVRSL

Regarding `COC(=O)C1=C(C)NC(C)=C(C(=O)OC)C1c1ccc(-c2cc(=O)cc(-c3ccccc3)o2)cc1`, the IC50 came to 4.71 µM and the IC30 is 1.26 ×10⁻⁶ M.
For `COC(=O)C1=C(C)NC(C)=C(C(=O)OC)C1c1ccc(-c2cc(=O)cc(C)o2)cc1`, in that order: 17.8 µM and 3.67 ×10⁻⁶ M.
As to `COC(=O)C1=C(C)NC(C)=C(C(=O)OC)C1c1ccccc1[N+](=O)[O-]` [NIFEDIPINE], the IC30 turned out to be 1.6 ×10⁻⁸ M.
As to `CCOC(=O)C1=C(C)NC(C)=C(C(=O)OCC)C1c1cc(=O)cc(-c2ccccc2)o1`, the IC50 came out at 3.24 µM and the IC30 turned out to be 1.01 ×10⁻⁶ M.
For `CCOC(=O)C1=C(C)NC(C)=C(C(=O)OC)C1c1ccc(-c2cc(=O)cc(C)o2)cc1` (stereo unspecified), the IC50 is 86.1 µM and the IC30 is listed as 4.62 ×10⁻⁶ M.
On to `CCOC(=O)C1=C(C)NC(C)=C(C(=O)OC)C1c1ccc(-c2cc(=O)cc(-c3ccccc3)o2)cc1` (stereo unspecified), for which the IC50 stood at 94.4 µM and the IC30 stood at 4.62 ×10⁻⁶ M.
As for `CCOC(=O)C1=C(C)NC(C)=C(C(=O)OCC)C1c1ccc(-c2cc(=O)cc(C)o2)cc1`, the IC50 stood at 2.14 µM and the IC30 is listed as 7.2 ×10⁻⁷ M.
For `CCOC(=O)C1=C(C)NC(C)=C(C(=O)OC)C1c1cc(=O)cc(C)o1` (stereo unspecified) the same measures were 1.63 µM and 5.38 ×10⁻⁷ M.
`CCOC(=O)C1=C(C)NC(C)=C(C(=O)OC)C1c1cc(=O)cc(-c2ccccc2)o1` (stereo unspecified): the IC50 turned out to be 2.03 µM and the IC30 was determined as 7.18 ×10⁻⁷ M.
In the case of `CCOC(=O)C1=C(C)NC(C)=C(C(=O)OCC)C1c1cc(=O)cc(C)o1`, the 50% inhibitory concentration (IC50) stood at 35.9 µM and the IC30 came to 1.45 ×10⁻⁶ M.
For `CCOC(=O)C1=C(C)NC(C)=C(C(=O)OCC)C1c1ccc(-c2cc(=O)cc(-c3ccccc3)o2)cc1`, in that order: 12.2 µM and 6.12 ×10⁻⁶ M.
